Entries after “also recorded” stand apart in the source; their conditions may differ.
What was measured:
Format in all cases: in vivo, C57BL/6 mice
Creb (pCreb) = assay: Immunohistochemistry of treated skin for Creb signaling, HFSC and proliferation markers
Procedure: (§1) Wildtype male and female 49-day old C57BL/6 mice were obtained from Jackson Laboratories for all topical experiments. All animals were maintained in UCLA's Division of Laboratory Medicine (DLAM)-approved pathogen-free barrier facilities and procedures were performed using protocols that adhere to the standards of the UCLA Animal Research Committee (ARC), Office of Animal Research Oversight (OARO), and the National Institutes of Health (NIH).
All drugs were suspended in DMSO and aliquoted at approximately 5 times IC50 or EC50 for the purposes of penetrating the epidermal barrier upon in vivo application. Aliquots were then mixed with the appropriate volume of Premium Lecithin Organogel (PLO) Base (Transderma Pharmaceuticals Inc.) and topically applied onto the shaved dorsal skin of 49 day old telogen-stage mice. Three experiment timepoints were used: acute treatment (two doses across 48 hours), 1 week treatment (three doses across five days) or long-term studies (one dose three times a week for approximately 1.5 weeks). Full-thickness dorsal skin was collected for histological analysis, cryosectioning, RNA isolation, and/or for epidermal stem cell isolation according to well-established FACS protocol. […]

hair cycle = assay: Hair cycle analysis after topical treatment of shaved dorsal skin of telogen-stage mice; details: topical treatment during telogen, macroscopic and H&E follicle morphology (FIG. 2A-2C)
Procedure: as §1
(§2) All drugs were suspended in DMSO and aliquoted at approximately 5 times IC50 or EC50 for the purposes of penetrating the epidermal barrier upon in vivo application. Aliquots were then mixed with the appropriate volume of Premium Lecithin Organogel (PLO) Base (Transderma Pharmaceuticals Inc.) and topically applied onto the shaved dorsal skin of 49 day old telogen-stage mice. Three experiment timepoints were used: acute treatment (two doses across 48 hours), 1 week treatment (three doses across five days) or long-term studies (one dose three times a week for approximately 1.5 weeks). Full-thickness dorsal skin was collected for histological analysis, cryosectioning, RNA isolation, and/or for epidermal stem cell isolation according to well-established FACS protocol.
Hair cycles were assessed macroscopically by observational and photographic documentation. A scale was established to grade hair cycle stage: 1) telogen (pink, white skin when dorsally shaved); 2) pigmentation (broad blue/grey pigment spots/patches on shaved dorsal area); 3) hair growth (dark pigmentation coupled with small patches of fur); 4) anagen (dark, full patches of fur within dorsal area) in relation to number of doses and elapsed time of treatment. H&E images of all treatment conditions were imaged at 20× magnification to assess morphological changes in control and treated skin. Hair cycle stages were also evaluated by follicular morphology into respective telogen, telogen-to-anagen transition, or anagen categories.
A set of full-thickness skin samples were obtained from post-mortem tissue harvesting, fixed overnight in 4% paraformaldehyde, and then dehydrated for paraffin embedding and slide generation; hematoxylin and eosin staining according to standard protocol. For immunohistochemistry, formalin-fixed, paraffin-embedded tissue slides were cleared and rehydrated through a series of ethanol washes. Antigen retrieval (20 min in pressure cooker, microwaved at 100 power) was performed with 10 mM citrate. Slides were incubated in hydrogen peroxide (30 min at 4 C) and then blocked with 10% goat serum/0.1% tween for 1 hour at room temperature. Primary antibodies were added and incubated overnight. The following antibodies were used—rabbit pCreb (Cell Signaling 9198, 1:800); rabbit Sox9 (Abcam 185966, 1:800); rabbit Ki67 sp6 (Abcam 16667, 1:50); rabbit PCNA (Cell Signaling 13110, 1:700); rabbit cFos (Abcam 7963, 1:100). Sections were washed the following day with 0.1% PBST and incubated with rabbit secondary HRP-labeled polymer (Dako) for 1 hour at room temperature, and then quickly washed with 0.1% PBST and PBS. AEC chromogen (Vector) was used for the colometric development reaction. Slides were then briefly counterstained with hemotoxylin, mounted with Faramount Aqueous Mounting Media (Dako) and sealed for subsequent visualization by light microscopy.
Bright-field immunohistochemistry and hematoxylin/eosin-stained images were captured using an Olympus BX51 light microscope at 20× magnification or 40× using oil immersion.

[1] = tested on: lactate dehydrogenase (Ldh); assay: Ldh activity assay (in situ and plate reader) on treated skin/epidermis; details: epidermis isolated from treated male or female animals (FIG. 4A)
Procedure: as §1, §2

Ldha protein, pCreb = assay: Western blot of epidermis from treated animals for pCreb and Ldha protein; details: epidermis from treated animals (FIG. 4C)
Procedure: Wildtype male and female 49-day old C57BL/6 mice were obtained from Jackson Laboratories for all topical experiments. All animals were maintained in UCLA's Division of Laboratory Medicine (DLAM)-approved pathogen-free barrier facilities and procedures were performed using protocols that adhere to the standards of the UCLA Animal Research Committee (ARC), Office of Animal Research Oversight (OARO), and the National Institutes of Health (NIH). […] All drugs were suspended in DMSO and aliquoted at approximately 5 times IC50 or EC50 for the purposes of penetrating the epidermal barrier upon in vivo application. […] Three experiment timepoints were used: acute treatment (two doses across 48 hours), 1 week treatment (three doses across five days) or long-term studies (one dose three times a week for approximately 1.5 weeks). Full-thickness dorsal skin was collected for histological analysis, cryosectioning, RNA isolation, and/or for epidermal stem cell isolation according to well-established FACS protocol.

relative Ldh activity in lysed epidermis [1] | SMILES | activation of Creb (pCreb) by immunohistochemistry (Creb (pCreb); acute 48 hours topical treatment, HFSCs and IFE (FIG. 3B)) | canonical Creb target expression (cFos staining) (Creb (pCreb); acute treatment (FIG. 3B)) | effect on hair cycle progression / reentry into anagen (hair cycle) | effect on hair cycle progression / reentry into anagen (hair cycle; listed as H-89) | Creb activation (pCreb) (western blot) (Ldha protein, pCreb)
high Ldh activity | COc1ccccc1NC(=O)CSc1nc2c(cc1C#N)=CC1OCCOC1C=2 (stereo not shown) [#44] | activation of Creb (pCreb) in HFSCs (and IFE) | induced levels of transcript for canonical Creb targets | accelerated reentry into anagen; also recorded: strongly accelerate the hair cycle; also recorded: accelerated hair growth |  | 
 | COc1ccc(NC(=O)CSc2nc3c(cc2C#N)=CC2OCCOC2C=3)c(OC)c1 (stereo not shown) [#61] |  |  | accelerated reentry into anagen; also recorded: strongly accelerate the hair cycle; also recorded: accelerated hair growth |  | 
 | CCOc1ccc(OCC)c(NC(=O)CSc2nc3c(cc2C#N)=CC2OCCOC2C=3)c1 (stereo not shown) [#62] |  |  | strongly accelerate the hair cycle |  | 
did not demonstrate altered Ldh activity | O=S(=O)(NCCNC/C=C/c1ccc(Br)cc1)c1cccc2cnccc12 [H89, reference compound] |  |  | slowed hair cycle progression; also recorded: delays reentry into anagen; also recorded: slowed the hair cycle dramatically | delayed reentry into anagen | inhibition of Creb

Source: patent US20190350909A1, “COMPOSITIONS AND METHODS FOR MODULATING HAIR GROWTH” (priority 2018, published 2019)
